According to patent US20050159476A1, “Pharmaceutical composition for preventing or treating respiratory disease” (Chugai Seiyaku Kabushiki Kaisha, priority 2002, published 2005):
Read-outs that look alike come from different tables or passages of the source.

Tests used:
Format in all cases: cell-based
[1] = system: human A549 cells; assay: Protective effect against cell injury induced by t-butyl hydroperoxide in human A549 cells; details: t-BuOOH in saline in each well
[2] = system: human A549 cells; assay: Protective effect against cell injury induced by oxidized LDL in human A549 cells (LDH leakage); details: for inhibition at 3 µM / inhibition at 30 µM: Homo sapiens, oxidized LDL 100 μg/mL, 24 hours, average ± standard error; for inhibition at 3 µM: 3 μmol/L test compound; for inhibition at 30 µM: 30 μmol/L test compound
Protocol: (§1) Oxidized LDL was prepared by maintaining 1 mg/mL of rabbit LDL at 37° C for 24 hours in PBS (-) containing 10 μmol/L CUSO4.
Human A549 cells used in this test are available under accession number ATCC-CCL-185 and have the properties of type II alveolar epithelial cells (Lieber M, Smith B, Szakal A, Nelson-Rees W, Todaro G., A continuous tumor-cell line from a human lung carcinoma with properties of type II alveolar epithelial cells. Int J Cancer Jan. 15, 1976; 17(1):62-70).
(§2) These cells were dispersed in F12K medium containing 10% FBS and plated on a 24-well plate at 2.5×10^4 cells/500 μL/well. These cells were incubated at 37° C. for 18 hours and then the medium was replaced by F12K medium containing 2% FBS. At this time, 2.5 μL of a solution or a suspension of each test compound in ethanol was added at the concentrations of the test compound of 3 μmol/L and 30 μmol/L in each well.
(§3) After incubation at 37° C. for 6 hours, 50 μL of a suspension of oxidized LDL was added per well at the concentration of oxidized LDL of 100 μg/mL in each well.
(§4) After incubation at 37° C. for 24 hours, 200 μL of the supernatant was collected from each well and the amount of lactate dehydrogenase (LDH) leaked from cells was determined by the SFBC method.
(§5) Further test was carried out in the same manner as the above test with the exception that each test compound was added to the cell culture after incubation for 6 hours following medium replacement and immediately before oxidized LDL was added thereto rather than when the medium was replaced with F12K medium containing 2% FBS.
(§6) Higher LDH levels in the supernatant indicate that greater cell injury is induced by oxidized LDL. Separately, one experiment was carried out using a well in the same manner as the above test with the exception that no test compound was added to the well. The level of LDH in this well was defined as 0% cell protection. In addition, other experiment was carried out using another well without adding either test compound or oxidized LDL but with adding saline instead. The level of LDH in this well was defined as 100% cell protection. These levels of LDH were used for calculating cell protection of each test compound used in the above test.
Probucol and α-tocopherol were tested for comparison with the compounds of the present invention. In this test, the test compounds were added to the cell culture after incubation for 6 hours following medium replacement and immediately before oxidized LDL was added.

[3] = system: normal human bronchial/tracheal epithelial cells (NHBE w/RA); assay: Protective effect against cell injury induced by oxidized LDL in normal human bronchial/tracheal epithelial cells (LDH leakage); details: 24 h, average ± standard error; for inhibition at 3 µM: 3 μmol/L test compound; for inhibition at 30 µM: 30 μmol/L test compound
Protocol: as §1, §2, §3, §4, §5, §6
This test example was carried out in a similar manner to test example 1 except that human A549 cells were replaced with normal human bronchial/tracheal epithelial cells (NHBE w/RA: BioWhittaker Co.), cell culture medium was changed from F12K medium containing 10% FBS to BEGM® medium, and the replacement of medium was not made.

[4] = read-out: % Cell protection in the case where oxidized LDL was added 6 hrs after adding test compound
[5] = read-out: % Cell protection in the case where oxidized LDL was added immediately after adding test compound

**Q.** With `CCCCCC1(CCCCC)Cc2c(cc(C(C)(C)C)c(O)c2C(C)(C)C)O1` [Compound 3, 4,6-di-t-butyl-2,2-di-n-pentyl-5-hydroxy-2,3-dihydrobenzofuran] as the compound, how does the “inhibition of cell injury induced by t-butyl hydroperoxide (FIG. 2)” value [1] read?
**A.** The value was “inhibits cell injury”.

**Q.** What about the inhibition at 3 µM [2, 4] of the same compound?
**A.** The inhibition at 3 µM was 18.7 ± 2.1%.

**Q.** And the inhibition at 3 µM [2, 5]?
**A.** The inhibition at 3 µM was 14.3 ± 2.3%.

**Q.** And the inhibition at 30 µM [2, 4]?
**A.** The inhibition at 30 µM was 95 ± 2.5%.

**Q.** What about the inhibition at 30 µM [2, 5] of the same compound?
**A.** The inhibition at 30 µM was 85.4 ± 1.6%.

**Q.** And the “% cell protection as a function of test compound concentration (FIG. 1)” value ([2]; test compound added immediately before oxidized LDL, Test Example 2)?
**A.** Its value is “begins to sharply increase when the concentration of Compound 3 exceeds about 10 μmol/L”.

**Q.** What about the inhibition at 3 µM [3, 4] of the same compound?
**A.** The inhibition at 3 µM was 49.8 ± 6.4%.

**Q.** And the inhibition at 3 µM [3, 5]?
**A.** The inhibition at 3 µM was 9.8 ± 3.3%.

**Q.** What about the inhibition at 30 µM [3, 4] of the same compound?
**A.** Its inhibition at 30 µM is 70.8 ± 2%.

**Q.** What about the inhibition at 30 µM [3, 5] of the same compound?
**A.** The inhibition at 30 µM was 66.2 ± 2.6%.

**Q.** `CC(C)(C)c1cc2c(c(C(C)(C)C)c1O)CC1(CCCCC1)O2` [Compound 10, 4,6-di-t-butyl-5-hydroxy-2,3-dihydrobenzofuran-2-spiro-1′-cyclohexane] was tested. Which inhibition at 3 µM [2, 4] did it give?
**A.** Its inhibition at 3 µM is -0.7 ± 1.5%.

**Q.** What about the inhibition at 3 µM [2, 5] of the same compound?
**A.** The inhibition at 3 µM was 0.9 ± 1.9%.

**Q.** And the inhibition at 30 µM [2, 4]?
**A.** Its inhibition at 30 µM is 97.8 ± 2.1%.

**Q.** And the inhibition at 30 µM [2, 5]?
**A.** Its inhibition at 30 µM is 96.9 ± 4.8%.

**Q.** And the inhibition at 3 µM [3, 4]?
**A.** The inhibition at 3 µM was 5.3 ± 2.6%.

**Q.** And the inhibition at 3 µM [3, 5]?
**A.** The inhibition at 3 µM was 13.1 ± 6.4%.

**Q.** And the inhibition at 30 µM [3, 4]?
**A.** Its inhibition at 30 µM is 37.3 ± 4.3%.

**Q.** And the inhibition at 30 µM [3, 5]?
**A.** Its inhibition at 30 µM is 57 ± 2.5%.

**Q.** `CC(C)(C)c1cc2c(c(C(C)(C)C)c1O)CC1(CCSCC1)O2` [Compound 11, 4,6-di-t-butyl-5-hydroxy-2,3-dihydrobenzofuran-2-spiro-4′-tetrahydrothiopyran] was tested. Which inhibition at 3 µM [2, 4] did it give?
**A.** Its inhibition at 3 µM is 3.5 ± 2.6%.

**Q.** And the inhibition at 3 µM [2, 5]?
**A.** Its inhibition at 3 µM is 4.6 ± 2.6%.

**Q.** What about the inhibition at 30 µM [2, 4] of the same compound?
**A.** Its inhibition at 30 µM is 99.3 ± 1.1%.

**Q.** What about the inhibition at 30 µM [2, 5] of the same compound?
**A.** Its inhibition at 30 µM is 98.5 ± 0.8%.

**Q.** What about the inhibition at 3 µM [3, 4] of the same compound?
**A.** Its inhibition at 3 µM is 3 ± 3.2%.

**Q.** What about the inhibition at 3 µM [3, 5] of the same compound?
**A.** Its inhibition at 3 µM is 7.5 ± 7.6%.

**Q.** And the inhibition at 30 µM [3, 4]?
**A.** The inhibition at 30 µM was 52 ± 2.2%.

**Q.** And the inhibition at 30 µM [3, 5]?
**A.** Its inhibition at 30 µM is 40.9 ± 5.3%.

**Q.** For `CC1(C)Cc2c(cc(C(C)(C)C)c(O)c2C(C)(C)C)S1` [Compound 12, 4,6-di-t-butyl-5-hydroxy-2,2-dimethyl-2,3-dihydrobenzothiophene], which inhibition at 3 µM [2, 4] is on record?
**A.** Its inhibition at 3 µM is 9.9 ± 6.8%.

**Q.** And the inhibition at 3 µM [2, 5]?
**A.** Its inhibition at 3 µM is 11.1 ± 7.4%.

**Q.** What about the inhibition at 30 µM [2, 4] of the same compound?
**A.** The inhibition at 30 µM was 98.7 ± 2.9%.

**Q.** And the inhibition at 30 µM [2, 5]?
**A.** The inhibition at 30 µM was 96.6 ± 2%.

**Q.** What about the inhibition at 3 µM [3, 4] of the same compound?
**A.** The inhibition at 3 µM was 10.9 ± 2.1%.

**Q.** And the inhibition at 3 µM [3, 5]?
**A.** Its inhibition at 3 µM is 10.9 ± 3.8%.

**Q.** What about the inhibition at 30 µM [3, 4] of the same compound?
**A.** Its inhibition at 30 µM is 21.2 ± 2%.

**Q.** And the inhibition at 30 µM [3, 5]?
**A.** Its inhibition at 30 µM is 48.7 ± 1.2%.

**Q.** With `CC(C)(C)c1cc2c(c(C(C)(C)C)c1O)CC1(CCCCC1)S2` [Compound 13, 4,6-di-t-butyl-5-hydroxy-2,3-dihydrobenzothiophene-2-spiro-1′-cyclohexane] as the compound, how does the inhibition at 3 µM [2, 4] read?
**A.** Its inhibition at 3 µM is 10.8 ± 3.9%.

**Q.** And the inhibition at 3 µM [2, 5]?
**A.** Its inhibition at 3 µM is 11.3 ± 3.5%.

**Q.** And the inhibition at 30 µM [2, 4]?
**A.** The inhibition at 30 µM was 98 ± 1%.

**Q.** What about the inhibition at 30 µM [2, 5] of the same compound?
**A.** The inhibition at 30 µM was 97.1 ± 4.3%.

**Q.** What about the inhibition at 3 µM [3, 4] of the same compound?
**A.** Its inhibition at 3 µM is -3.4 ± 7.1%.

**Q.** What about the inhibition at 3 µM [3, 5] of the same compound?
**A.** The inhibition at 3 µM was -4.8 ± 2.9%.

**Q.** What about the inhibition at 30 µM [3, 4] of the same compound?
**A.** Its inhibition at 30 µM is 37.8 ± 0.7%.

**Q.** What about the inhibition at 30 µM [3, 5] of the same compound?
**A.** The inhibition at 30 µM was 49.2 ± 1.7%.

**Q.** Which results are given for `CC(C)(C)c1cc2c(c(C(C)(C)C)c1O)CC1(CCOCC1)S2` [Compound 14, 4,6-di-t-butyl-5-hydroxy-2,3-dihydrobenzothiophene-2-spiro-4′-tetrahydropyran]?
**A.** inhibition at 3 µM [2, 4]: 7 ± 3.5%; inhibition at 3 µM [2, 5]: 3.2 ± 1.3%; inhibition at 30 µM [2, 4]: 96.1 ± 1.2%; inhibition at 30 µM [2, 5]: 98.9 ± 2.4%; inhibition at 3 µM [3, 4]: -0.5 ± 1.9%; inhibition at 3 µM [3, 5]: -1 ± 5.3%; inhibition at 30 µM [3, 4]: 63.3 ± 0.8%; inhibition at 30 µM [3, 5]: 60.6 ± 4%

**Q.** Which results are given for `Cc1cc2c(c(C)c1O)CC(C)(C)O2` [Compound 15, 5-hydroxy-2,2,4,6-tetramethyl-2,3-dihydrobenzofuran]?
**A.** inhibition at 3 µM [2, 4]: 30 ± 10.2%; inhibition at 3 µM [2, 5]: 36.1 ± 14.1%; inhibition at 30 µM [2, 4]: 100.6 ± 0.9%; inhibition at 30 µM [2, 5]: 99.6 ± 0.7%; inhibition at 3 µM [3, 4]: 45.9 ± 4.5%; inhibition at 3 µM [3, 5]: 40.8 ± 3.3%; inhibition at 30 µM [3, 4]: 79.5 ± 6.4%; inhibition at 30 µM [3, 5]: 70.6 ± 4.9%

**Q.** What does the source list for `CC1(C)Cc2c(c(C(C)(C)C)cc(O)c2C(C)(C)C)O1` [Compound 16, 4,7-di-t-butyl-5-hydroxy-2,2-dimethyl-2,3-dihydrobenzofuran]?
**A.** inhibition at 3 µM [2, 4]: 100.3 ± 1%; inhibition at 3 µM [2, 5]: 99.1 ± 0.9%; inhibition at 30 µM [2, 5]: 98.4 ± 0.6%; inhibition at 3 µM [3, 4]: 54.9 ± 3.4%; inhibition at 3 µM [3, 5]: 62.6 ± 1.6%; inhibition at 30 µM [3, 5]: 42 ± 2.2%

**Q.** Which inhibition at 3 µM [2, 4] does the source give for `CCCCCC1(CCCCC)Cc2c(cc(C)c(O)c2C)O1` [Compound 17, 4,6-dimethyl-2,2-di-n-pentyl-5-hydroxy-2,3-dihydrobenzofuran] here?
**A.** Its inhibition at 3 µM is 97.8 ± 1.4%.

**Q.** And the inhibition at 3 µM [2, 5]?
**A.** The inhibition at 3 µM was 97.7 ± 1.1%.

**Q.** And the inhibition at 30 µM [2, 5]?
**A.** The inhibition at 30 µM was 98.1 ± 3.6%.

**Q.** And the inhibition at 3 µM [3, 4]?
**A.** The inhibition at 3 µM was 44.8 ± 5.9%.

**Q.** And the inhibition at 3 µM [3, 5]?
**A.** Its inhibition at 3 µM is 51 ± 5%.

**Q.** And the inhibition at 30 µM [3, 5]?
**A.** The inhibition at 30 µM was 57.6 ± 0.6%.

**Q.** With `CC(C)(C)c1cc2c(cc1O)CC1(CCCCCC1)O2` [Compound 18, 6-t-butyl-5-hydroxy-2,3-dihydrobenzofuran-2-spiro-1′-cycloheptane] as the compound, how does the inhibition at 3 µM [2, 4] read?
**A.** The inhibition at 3 µM was 98.7 ± 1.3%.

**Q.** And the inhibition at 3 µM [2, 5]?
**A.** Its inhibition at 3 µM is 96.2 ± 0.4%.

**Q.** What about the inhibition at 30 µM [2, 5] of the same compound?
**A.** Its inhibition at 30 µM is 97.4 ± 1%.

**Q.** And the inhibition at 3 µM [3, 4]?
**A.** Its inhibition at 3 µM is 55.7 ± 3.1%.

**Q.** And the inhibition at 3 µM [3, 5]?
**A.** The inhibition at 3 µM was 46.4 ± 1.4%.

**Q.** And the inhibition at 30 µM [3, 5]?
**A.** Its inhibition at 30 µM is 35.5 ± 1.9%.
